Patent publication US20040266885A1, “Wood preservative compositions” (priority 2001, published 2004)
Where “and” joins values, the source holds several entries; their conditions need not be identical. Identical values can stand only once. Like-named read-outs stand apart in the source and are kept apart here.

Test system: Coptotermes formosanus
Details: for Mean Rating (termite attack): mean of 4 specimens; for Mean Rating (termite attack) / Termite Attack Rating: 4 weeks sand culture; for Termite Attack Rating: single specimen
Description: A laboratory test was undertaken to determine the toxic values of novel actives against termites. The active materials used were TBBA, TBBE [4,4′-ethylidenebis(2,6-dibromophenol)] [CAS RN=12639-25-3] (Sample Number 1392-82-03); TBBZ [4,4′-cyclohexylidene(2,6-dibromophenol)] [CAS RN=53350-96-2] (Sample Number 1392-72-03) and TBA, 2,2′,6-tribromo-4,4′-isopropylidenediphenol, CAS 6386-73-8 (Sample Number 1392-75-03).
The test was undertaken largely according to the strictures laid down in ASTM 3345-74 (the American standard laboratory test to assess the termite resistant properties of wood to wood destroying termites). The test method allows for the exposure of treated buried wood blocks to termites (Reticulitermes or Coptotermes spp.) over a period of 4 weeks. Efficacy of the product is determined by the extent of termite damage to the treated timber specimens through a scoring system. The test was slightly modified from the standard ASTM test by reducing the number of replicate wood specimens from 5 to 4.
Score 1: Attempted attack
The toxic values of the preservative product (in kg/m^3 of wood) fall between two values as follows:
1) The lowest concentration which protects the wood (i.e. the concentration at which none of the test specimens show a degree of attack greater than 1).
The termites employed were Coptotermes formosanus.
All wood bock specimens were of Southern Yellow Pine sapwood (Pinus spp.) with dimensions of 25.4×25.4×6.4 mm in accordance with ASTM D3345-74. All blocks were vacuum impregnated with the relevant solutions in accordance with ASTM D3345-74. Distribution of blocks in the test was as follows:
The test specimens were conditioned and subjected to a leaching schedule (after vacuum impregnation) as stipulated in ASTM D1413-76 (as recommended in ASTM D3345-74). All test specimens were then air dried for two weeks to constant weight.
The specimens were each positioned at the base of a 500 ml polyethylene culture jar (numbered according to each test specimen) and covered with 200 g of sand (pre-washed, sterilised and air conditioned in the laboratory) to which was added 25 g of de-ionised water. A further two containers containing watered sand but no timber were also prepared. All the jars were sealed (lids pre-pierced and covered with stainless steel mesh for aeration).
Two days after specimen placement, 200 termites were added to each culture jar (90% workers and 10% soldiers) and the jars re-sealed. The jars were incubated at a mean temperature and relative humidity of 27.5° C. and 75-90% for 4 weeks. The containers were provided with an artificial lighting regime of 10 hours light and 14 hours darkness.
After 1 week and 4 weeks each container was examined to determine termite mortality and normal tunneling behaviour patterns as follows:
Is there tunneling present: YES/NO
Are there any termites on the surface of the soil: YES/NO (if yes how many, i.e. 1-25% of pop, 26-50% of pop, 51-100% of pop.)
Are any dead termites visible: YES/NO (if yes how many, 1-33%, 34-66%, 67-100%)
After 4 weeks the test specimens were removed and cleaned of debris. Each block was examined and visually rated for termite damage using the scoring system detailed above.

[1] = 1 week, solution conc. 1%, ethanol carrier
[2] = 1 week, solution conc. 3%, ethanol carrier
[3] = 1 week, solution conc. 5%, ethanol carrier
[4] = 1 week, solution conc. 7%, ethanol carrier
[5] = 1 week, solution conc. 10%, ethanol carrier
[6] = 4 weeks, solution conc. 1%, ethanol carrier
[7] = 4 weeks, solution conc. 3%, ethanol carrier
[8] = 4 weeks, solution conc. 5%, ethanol carrier
[9] = 4 weeks, solution conc. 7%, ethanol carrier
[10] = 4 weeks, solution conc. 10%, ethanol carrier
[11] = solution conc. 1%, ethanol carrier
[12] = solution conc. 3%, ethanol carrier
[13] = solution conc. 5%, ethanol carrier
[14] = solution conc. 7%, ethanol carrier
[15] = solution conc. 10%, ethanol carrier
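Throughout, for Termite Attack Rating: score 0 no attack 2 slight 3 average 4 strong attack.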

`CC(C)(c1cc(Br)c(O)c(Br)c1)c1cc(Br)c(O)c(Br)c1` [TBBA, Tetrabromobisphenol A] was tested, and the “Surface Activity (termites on the surface of the soil)” value [1] was “No/No”, the “Tunneling Activity” value [1] was “Yes/Yes” and the “Visible Mortality” value [1] was “No/No”. The “Surface Activity (termites on the surface of the soil)” value [2] was “No/No”, the “Tunneling Activity” value [2] was “Yes/Yes” and the “Visible Mortality” value [2] was “No and No/No”. The “Surface Activity (termites on the surface of the soil)” value [3] was 1-25 % (of pop.), the “Tunneling Activity” value [3] was “Yes/Yes” and the “Surface Activity (termites on the surface of the soil)” value [4] was “No/No”. For the same compound, the “Tunneling Activity” value [4] was “Yes/Yes”, the “Visible Mortality” value [4] was “No” and the “Surface Activity (termites on the surface of the soil)” value [5] was “No”. The “Tunneling Activity” value [5] was “Yes/Yes”, the “Visible Mortality” value [5] was “No” and the “Surface Activity (termites on the surface of the soil)” value [6] was “No/No”. The “Tunneling Activity” value [6] was “Yes/Yes”, the “Visible Mortality” value [6] was “No/No” and the “Surface Activity (termites on the surface of the soil)” value [7] was “No/No”. For the same compound, the “Tunneling Activity” value [7] was “Yes/Yes”, the “Surface Activity (termites on the surface of the soil)” value [8] was “No” and the “Tunneling Activity” value [8] was “Yes/Yes”. The “Surface Activity (termites on the surface of the soil)” value [9] was “No/No”, the “Tunneling Activity” value [9] was “Yes/Yes” and the “Surface Activity (termites on the surface of the soil)” value [10] was 1-25 % (of pop.). The “Tunneling Activity” value [10] was “Yes/Yes”, the “Visible Mortality” value [10] was 67-100 % (of pop.) and the “reduction in termite attack” value (concentrated solutions, followed by leaching) was “a significant reduction in termite attack”. For the same compound, the “repellent effect on termites (surface activity data)” value (ethanol carrier) was “a degree of termite repellency throughout the incubation period”, the “toxic value, lower (concentration at which the wood is no longer sufficiently protected)” value (mean loading, solution concentration 5%, ethanol carrier, leached, 4 weeks) was 32.52 kg/m^3 and the “toxic value, upper (lowest concentration which protects the wood)” value (mean loading, solution concentration 7%, ethanol carrier, leached, 4 weeks) was 44.00 kg/m^3. The “Mean Rating (termite attack)” value [11] was 2.75, the “Termite Attack Rating” value [11] was 3 and 2 and 4 and the “Mean Rating (termite attack)” value [12] was 2.25. For the same compound, the “Termite Attack Rating” value [12] was 2 and 3, the “Mean Rating (termite attack)” value [13] was 1.50 and the “Termite Attack Rating” value [13] was 1 and 2. The “Mean Rating (termite attack)” value [14] was 1.00, the “Termite Attack Rating” value [14] was 1 and the “Mean Rating (termite attack)” value [15] was 1.00. The “Termite Attack Rating” value [15] was 1.
